System: mouse
Assay: DL50 after intracerebroventricular administration to the mouse (neurotoxicity / molecular toxicity)
Assay type: in vivo
Excerpt: DL50 values after intracerebral administration (intracisternal, intracerebroventricular), for example in the mouse and in the rat, can therefore be taken as a highly sensitive index of the molecular toxicity of the contrast agent (Toxicology Letters, cited ref.). In particular, the intracerebroventricular administration seems to be the most sensitive to discriminate the neurotoxicity of the compounds (Proceedings of the 10th National Congress of the Italian Toxicology Society, Pavia, September 21-24th, 100, 1994).
The present invention relates to chelated complexes of paramagnetic metals characterized by an extremely favourable neurotoxicity profile. […] The compound described in example 1 (gadolinium complex of 10-[2-[[2-(2-hydroxyethoxy)ethyl]amino]-2-oxoethyl]-α,α′,α″-tris(hydroxymethyl)-1,4,7,10-tetraazacyclododecane-1,4,7-triacetic) acid has, for example, a DL50 of 0.23 mmol/kg after intracerebroventricular administration to the mouse. The compounds described in example 2 (gadolinium complex of α,α′,α″-tris (hydroxymethyl)-10-(2-hydroxypropyl)-1,4,7,10-tetraazacyclododecane-1,4,7-triacetic acid) and in Example 4 (Na^+Gd[THM-DOTA]^−) have a very good tolerability as well, with a DL50, after intracerebroventricular administration to the mouse, of 0.170 and 0.150 mmol/kg, respectively; the corresponding value for Gd-DOTA being 0.064 mmol/kg.

SMILES: O=C([O-])CN1C[C@@H](CO)N(CC(=O)[O-])C[C@@H](CO)N(CC(=O)[O-])C[C@@H](CO)N(CC(=O)[O-])C[C@H]1CO.[Gd+3].[Na+] (relative stereo) [Example 4, Gadolinium complex of [2S-(2R*,5R*,8R*,11R*)]-2,5,8,11-tetra(hydroxymethyl)-1,4,7,10-tetraazacyclododecane-1,4,7,10-tetraacetic acid sodium salt (1:1)]
- DL50 after intracerebroventricular administration to the mouse: 0.150 mmol/kg

SMILES: O=C(CN1CCN(C(CO)C(=O)[O-])CCN(C(CO)C(=O)[O-])CCN(C(CO)C(=O)[O-])CC1)NCCOCCO.[Gd+3] (stereo not drawn) [Example 1, Gadolinium complex of 10-[2-[[2-(2-hydroxyethoxy)ethyl]amino]-2-oxoethyl]-α,α′,α″-tris(hydroxymethyl)-1,4,7,10-tetraazacyclododecane-1,4,7-triacetic acid]
- DL50 after intracerebroventricular administration to the mouse: 0.23 mmol/kg

SMILES: O=C([O-])CN1CCN(CC(=O)[O-])CCN(CC(=O)[O-])CCN(CC(=O)[O-])CC1.[Gd+3] [Gd-DOTA, reference compound]
- DL50 after intracerebroventricular administration to the mouse: 0.064 mmol/kg

Source: patent USRE38329E1, “Chelated complexes of paramagnetic metals with low toxicity” (Bracco Imaging S.p.A., priority 1997, dated 2003)
